{"source": "ChEMBL document CHEMBL4673352", "about": "“Discovery of AZD4573, a Potent and Selective Inhibitor of CDK9 That Enables Short Duration of Target Engagement for the Treatment of Hematological Malignancies” (J Med Chem, 2020)", "key": {"[1]": {"assay": "Solubility of compound in pH 4 0.1 M acetate buffer using crystalline form of sample", "type": "physicochemical"}, "[2]": {"assay": "Solubility of compound in pH 7.4 PBS buffer using crystalline form of sample", "type": "physicochemical"}, "[3]": {"assay": "Intrinsic clearance in human cryopreserved hepatocytes assessed per million cells […]", "type": "ADME, cell-based, Hepatocyte", "details": "read-out: CLH"}, "[4]": {"assay": "Solubility of compound in phosphate buffer at pH 7.4 using dried form of sample", "type": "physicochemical", "details": "phosphate buffer, read-out: solubility"}, "[5]": {"assay": "Half-life in mouse at 5.2 umol/kg, iv formulated as solution", "type": "ADME, organism-based", "details": "in vivo, dose 5.2 µmol/kg"}, "[6]": {"assay": "Half-life in Han Wistar rat at […], iv formulated as solution", "type": "ADME, organism-based", "details": "in vivo, dose 1.3 µmol/kg"}, "[7]": {"assay": "Volume of distribution at steady state in Beagle dog at 5.2 umol/kg, iv administered as 0.25 hrs infusion", "type": "ADME, organism-based, Canis lupus familiaris", "details": "in vivo, dose 5.2 µmol/kg, read-out: Vdss"}, "[8]": {"assay": "Clearance in Han Wistar rat plasma at […], iv formulated as solution", "type": "ADME, organism-based", "details": "dose 1.3 µmol/kg"}, "[9]": {"assay": "Clearance in mouse plasma at 5.2 umol/kg, iv formulated as solution", "type": "ADME, organism-based", "details": "dose 5.2 µmol/kg"}, "[10]": {"assay": "Intrinsic clearance in dog cryopreserved hepatocytes assessed per million cells […]", "type": "ADME, cell-based, Canis lupus familiaris, Hepatocyte", "details": "read-out: CLH"}, "[11]": {"assay": "Intrinsic clearance in rat cryopreserved hepatocytes assessed per million cells […]", "type": "ADME, cell-based, Hepatocyte", "details": "cryopreserved hepatocytes, read-out: CLH"}, "[12]": {"assay": "Intrinsic clearance in human liver microsome", "type": "ADME, microsomes", "details": "liver microsomes, read-out: CLH"}, "[13]": {"assay": "Half-life in Beagle dog at 5.2 umol/kg, iv administered as 0.25 hrs infusion", "type": "ADME, organism-based, Canis lupus familiaris", "details": "in vivo, dose 5.2 µmol/kg"}, "[14]": {"assay": "Volume of distribution at steady state in mouse at 5.2 umol/kg, iv formulated as solution", "type": "ADME, organism-based", "details": "in vivo, dose 5.2 µmol/kg, read-out: Vdss"}, "[15]": {"assay": "Volume of distribution at steady state in Han Wistar rat at […], iv formulated as solution", "type": "ADME, organism-based", "details": "in vivo, dose 1.3 µmol/kg, read-out: Vdss"}, "[16]": {"assay": "Intrinsic clearance in mouse cryopreserved hepatocytes assessed per million cells […]", "type": "ADME, cell-based, Hepatocyte", "details": "read-out: CLH"}, "[17]": {"assay": "Lipophilicity, log D of compound in buffer/octanol at pH 7.4 by shake flask method", "type": "physicochemical"}, "[18]": {"assay": "Clearance in Beagle dog plasma at 5.2 umol/kg, iv administered as 0.25 hrs infusion", "type": "ADME, organism-based, Canis lupus familiaris", "details": "dose 5.2 µmol/kg"}}, "data": [{"smiles": "COc1cc(F)ccc1-c1ccnc(NC(=O)[C@H]2CCC[C@@H](NC(C)=O)C2)c1", "values": [{"measurement": "solubility thermodynamic", "setting": "[1]", "value": 24, "unit": "µM"}, {"measurement": "solubility thermodynamic", "setting": "[2]", "value": 7.5, "unit": "µM"}, {"measurement": "hepatocyte CLint", "setting": "[3]", "value": 1.4, "unit": "µL/min/1e6 cells"}, {"measurement": "solubility", "setting": "[4]", "value": 33, "unit": "µM"}, {"measurement": "half-life", "setting": "[5]", "value": 15.6, "unit": "min"}, {"measurement": "half-life", "setting": "[6]", "value": 13.2, "unit": "min"}, {"measurement": "Vd", "setting": "[7]", "value": 0.62, "unit": "L/kg"}, {"measurement": "clearance", "setting": "[8]", "value": 77, "unit": "mL/min/kg"}, {"measurement": "clearance", "setting": "[9]", "value": 40, "unit": "mL/min/kg"}, {"measurement": "hepatocyte CLint", "setting": "[10]", "value": 5.9, "unit": "µL/min/1e6 cells"}, {"measurement": "hepatocyte CLint", "setting": "[11]", "value": 58, "unit": "µL/min/1e6 cells"}, {"measurement": "microsomal CLint", "setting": "[12]", "value": 12, "unit": "µL/min/mg"}, {"measurement": "half-life", "setting": "[13]", "value": 60, "unit": "min"}, {"measurement": "Vd", "setting": "[14]", "value": 1.1, "unit": "L/kg"}, {"measurement": "Vd", "setting": "[15]", "value": 1.3, "unit": "L/kg"}, {"measurement": "hepatocyte CLint", "setting": "[16]", "value": 52, "unit": "µL/min/1e6 cells"}, {"measurement": "logD", "setting": "[17]", "value": 3}, {"measurement": "clearance", "setting": "[18]", "value": 7.5, "unit": "mL/min/kg"}]}]}
